Results as given in patent US20260200943A1, “COMPOUNDS FOR TREATING CANCER” (Genesis Therapeutics, Inc., priority 2022, published 2026).

Key:
Type in all cases: biochemical
[1] = target: T1, CDK6/CyclinD3 (Homo sapiens, UniProt Q00534); test: CDK6/CyclinD3 ChEF Assay (AQT, Table C); settings: read-out: CDK6/CCND3 AQT Ki: Average Ki
T1 construct: Wild-type, full length CDK6 in complex with wildtype, full length CyclinD3: Carna Cat #04-107; purchased Carna 04-107
Procedure: (§1) 16 nL of 1000× compound in 100% DMSO is added to a 384-well low volume, black assay plate. 12 μL of 1.3×CDK6/CyclinD3 (Wild-type, full length CDK6 in complex with wildtype, full length CyclinD3: Carna Cat #04-107) diluted in assay buffer (54 mM Hepes, 0.012% Brij-35, 10 mM MgCl2, 0.55 mM EGTA, 1% Glycerol, 0.02% BSA, and 1.2 mM DTT) is added to the plates on top of the compound and pre-incubated for 30 minutes at room temperature. Following the incubation, 4 uL of 4×Sox-chromophore (CSox) labeled peptide substrate (AQT0258, AssayQuant) & ATP diluted in assay buffer is added to the plate to initiate the reaction. The assay is incubated at room temperature for 300 min after initiation. The CSox peptide substrate is phosphorylated by CDK6/D3 upon ATP hydrolysis.
(§2) The fluorescent intensity measurement of the assay plate is read on a microplate reader once the assay is initiated and again at the completion of the assay. Phosphorylation of the CSox-based peptide substrate sensor results in an immediate increase in fluorescence. These raw fluorescence intensity values are normalized to calculate percent inhibition, which are fit to a four-parameter logistic curve and IC50 values are calculated. IC50 values are converted to Ki using substrate, KM^app values, and the Cheng-Prusoff equation.

[2] = target: T2, CDK4/CyclinD1 (Homo sapiens, UniProt P11802); test: CDK4/CyclinD1 ChEF Assay (AQT, Table C); settings: read-out: CDK4/CCND1 AQT Ki: Average Ki
T2 construct: Wild-type, full length CDK4 in complex with wildtype, CyclinD1: ThermoFisher Cat #PR8064A; purchased ThermoFisher PR8064A
T2 sequence (P11802 whole entry): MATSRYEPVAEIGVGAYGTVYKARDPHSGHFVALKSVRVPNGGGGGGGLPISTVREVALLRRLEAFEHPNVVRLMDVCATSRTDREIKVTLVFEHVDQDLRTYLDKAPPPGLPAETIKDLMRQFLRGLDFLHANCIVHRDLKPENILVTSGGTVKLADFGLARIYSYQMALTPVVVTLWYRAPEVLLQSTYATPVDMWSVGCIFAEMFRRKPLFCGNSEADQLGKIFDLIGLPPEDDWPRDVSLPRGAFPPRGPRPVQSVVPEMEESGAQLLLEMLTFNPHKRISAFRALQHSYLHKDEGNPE
T2 sequence (P24385 whole entry partner): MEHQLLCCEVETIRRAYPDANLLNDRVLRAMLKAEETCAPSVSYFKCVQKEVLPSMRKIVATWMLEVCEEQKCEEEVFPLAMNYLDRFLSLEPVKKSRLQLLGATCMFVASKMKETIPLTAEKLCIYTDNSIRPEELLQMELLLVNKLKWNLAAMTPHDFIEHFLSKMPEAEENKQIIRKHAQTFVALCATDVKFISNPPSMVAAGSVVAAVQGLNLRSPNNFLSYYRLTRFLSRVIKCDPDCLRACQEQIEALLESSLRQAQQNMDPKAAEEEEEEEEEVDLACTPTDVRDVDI
Procedure: as §1, with “1.3×CDK4/CyclinD1” for “1.3×CDK6/CyclinD3”, “CDK4” for “CDK6”, “CyclinD1: ThermoFisher” for “full length CyclinD3: Carna”, “#PR8064A)” for “#04-107)”, “150” for “300”, “CDK4/D1” for “CDK6/D3”
as §2, with “KM^ap” for “KM^app”

[3] = target: CDK9/CyclinT1 (Homo sapiens, UniProt P50750); test: CDK9/CyclinT1 ChEF Assay (AQT, Table C); parameters: Wild-type, full length CDK9 in complex with wildtype, CyclinT1 (1-259): Biortus Cat #BP480/792/691; purchased Biortus BP480/792/691; settings: 10XKm
Sequence of CDK9/CyclinT1 (P50750 whole entry): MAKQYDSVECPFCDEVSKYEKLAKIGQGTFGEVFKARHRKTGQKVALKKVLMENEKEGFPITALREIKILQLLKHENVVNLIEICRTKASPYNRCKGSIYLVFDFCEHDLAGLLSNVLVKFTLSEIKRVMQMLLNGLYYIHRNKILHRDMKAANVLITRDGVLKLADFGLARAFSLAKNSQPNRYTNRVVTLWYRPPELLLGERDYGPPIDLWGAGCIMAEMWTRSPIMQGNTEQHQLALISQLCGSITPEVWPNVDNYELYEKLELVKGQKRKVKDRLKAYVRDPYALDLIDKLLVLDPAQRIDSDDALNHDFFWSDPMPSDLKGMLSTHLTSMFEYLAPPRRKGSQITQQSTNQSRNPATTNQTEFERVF
Sequence of CDK9/CyclinT1 (O60563 1-259 partner limits assumed): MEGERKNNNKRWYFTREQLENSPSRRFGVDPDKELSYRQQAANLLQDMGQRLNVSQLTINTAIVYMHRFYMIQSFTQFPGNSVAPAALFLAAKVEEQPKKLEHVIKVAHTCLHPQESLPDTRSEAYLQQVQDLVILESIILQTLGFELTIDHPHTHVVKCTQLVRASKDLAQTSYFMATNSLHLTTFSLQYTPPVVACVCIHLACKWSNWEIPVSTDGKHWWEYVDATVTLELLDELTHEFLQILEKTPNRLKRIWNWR
Procedure: 16 nL of 1000× compound in 100% DMSO is added to a 384-well low volume, black assay plate. 12 μL of 1.3×CDK9/CyclinT1 (Wild-type, full length CDK9 in complex with wildtype, CyclinT1 (1-259): Biortus Cat #BP480/792/691) diluted in assay buffer (54 mM Hepes, 0.012% Brij-35, 10 mM MgCl2, 0.55 mM EGTA, 1% Glycerol, 0.02% BSA, and 1.2 mM DTT) is added to the plates on top of the compound and pre-incubated for 30 minutes at room temperature. Following the incubation, 4 μL of 4×Sox-chromophore (CSox) labeled peptide substrate (AQT0449, AssayQuant) & ATP diluted in assay buffer is added to the plate to initiate the reaction. The assay is incubated at room temperature for 180 min after initiation. The CSox peptide substrate is phosphorylated by CDK9/T1 upon ATP hydrolysis.
as §2

[4] = target: T1, CDK6/CyclinD3; test: CDK6/Cyclin D3 Mobility Shift Assay (Caliper, Table B); settings: read-out: CDK6/CCND3 Caliper Ki: Average Ki
Procedure: 10 nL of 2000× compound in 100% DMSO is added to a 384-well polypropylene assay plate. 15 μL of 1.3×CDK6/D3 and 1.3× fluorescent substrate (Wild-type, full length CDK6 in complex with wildtype, full length CyclinD3: Carna Cat #04-107 and FL-Peptide 34: PerkinElmer Cat #760643) diluted in kinase buffer (50 mM Hepes, 0.01% Brij-35, 10 mM MgCl2, 1 mM EGTA, 0.05% BSA, and 2 mM DTT) is added to the plates on top of the compound, mixed, and pre-incubated for 30 minutes at room temperature. The fluorescently labeled peptide substrate is phosphorylated by CDK6/D3 upon ATP hydrolysis. Following the incubation, 5 μL of 4×ATP diluted in kinase buffer is added to the plate to initiate the reaction. Following the 30-minute incubation, the reaction is stopped by adding 75 μL of stopping buffer containing 0.5 M EDTA.
The assay plate is then read on a Lab Chip EZ Reader which separates the fluorescently labeled substrate and product peptides through a mobility difference. The phosphorylation of the substrate imparts a negative charge, which allows differences in separation as both are pulled through the microfluidic chip. The ratio of substrate and product values are used to generate percent conversion. These raw percent conversion values are normalized to calculate percent inhibition, which are fit to a four-parameter logistic curve and IC50 values are calculated. IC50 values are converted to Ki through using substrate and Km^app values, and the Cheng-Prusoff equation.

T1 sequence (Q00534 whole entry): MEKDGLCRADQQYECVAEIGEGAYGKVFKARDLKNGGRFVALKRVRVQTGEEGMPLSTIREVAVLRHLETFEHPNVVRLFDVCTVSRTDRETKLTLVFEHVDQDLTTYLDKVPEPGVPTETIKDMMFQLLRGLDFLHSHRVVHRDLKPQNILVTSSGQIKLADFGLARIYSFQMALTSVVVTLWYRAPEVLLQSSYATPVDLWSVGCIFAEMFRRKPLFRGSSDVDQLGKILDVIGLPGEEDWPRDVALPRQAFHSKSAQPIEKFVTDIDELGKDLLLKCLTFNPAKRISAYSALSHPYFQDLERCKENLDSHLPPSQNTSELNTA
T1 sequence (P30281 whole entry partner): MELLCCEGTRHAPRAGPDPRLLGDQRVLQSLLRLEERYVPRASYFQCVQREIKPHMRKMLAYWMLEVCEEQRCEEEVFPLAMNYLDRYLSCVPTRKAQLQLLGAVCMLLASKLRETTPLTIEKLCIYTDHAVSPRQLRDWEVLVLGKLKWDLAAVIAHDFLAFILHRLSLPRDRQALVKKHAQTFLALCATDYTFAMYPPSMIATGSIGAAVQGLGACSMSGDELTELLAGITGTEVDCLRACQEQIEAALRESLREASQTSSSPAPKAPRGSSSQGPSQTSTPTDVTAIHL

SMILES	Ki [1]	Ki [2]	Ki [3]	Ki [4]
O=C1NCCCCCCn2cc(cn2)S(=O)(=O)N2CCC(CC2)Nc2cc([nH]n2)[C@H]2CC[C@H](C2)O1 [Compound 97, (1^1S,1^3R,2^4Z,6^4E)-2^1H,6^1H-15-oxa-5-thia-3,13-diaza-4(4,1)-piperidina-2(5,3),6(4,1)-dipyrazola-1(1,3)-cyclopentanacyclopentadecaphan-14-one 5,5-dioxide]			0.025 to 0.1 µM	
O=C1NCC=CCNS(=O)(=O)c2ccc(c(F)c2)Nc2cc([nH]n2)[C@H]2CC[C@H](C2)O1 [Compound 102, (1^1S,1^3R,2^4Z)-4^2-fluoro-2^1H-13-oxa-5-thia-3,6,11-triaza-2(5,3)-pyrazola-4(1,4)-benzena-1(1,3)-cyclopentanacyclotridecaphan-8-en-12-one 5,5-dioxide]				≥ 0.1 µM

Second part, the compound after the results:

Ki [1]	Ki [2]	Ki [3]	Ki [4]	SMILES
≥ 0.1 µM	≥ 0.1 µM	0.025 to 0.1 µM		NS(=O)(=O)c1ccc2cc1OCCCCCNC(=O)O[C@@H]1CC[C@@H](C1)c1cnc(nc1)N2 (stereo in doubt) [Compound 105, rel-(2S,5R)-7-oxo-6,14-dioxa-8,20,22,25-tetraazatetracyclo[19.2.2.1^{2,5}.1^{15,19}]heptacosa-1(23),15,17,19(26),21,24-hexaene-16-sulfonamide]
			0.025 to 0.1 µM	O=C1NCCCCNS(=O)(=O)c2ccc(c(F)c2)Nc2cc([nH]n2)[C@H]2CC[C@H](C2)O1 [Compound 99, (1^1S, 1^3R,Z)-4^2-fluoro-2^1H-13-oxa-5-thia-3,6,11-triaza-2(5,3)-pyrazola-4(1,4)-benzena-1(1,3)-cyclopentanacyclotridecaphan-12-one 5,5-dioxide]
≥ 0.1 µM	≥ 0.1 µM	0.025 to 0.1 µM	≥ 0.1 µM	O=C1NCCCCCCNS(=O)(=O)c2ccc(c(F)c2)Nc2cc([nH]n2)[C@H]2CC[C@H](C2)O1 [Compound 91, (1^1S,1^3R,Z)-4^2-fluoro-2^1H-15-oxa-5-thia-3,6,13-triaza-2(5,3)-pyrazola-4(1,4)-benzena-1(1,3)-cyclopentanacyclopentadecaphan-14-one 5,5-dioxide]
			0.025 to 0.1 µM	O=C1NCCCCCCCNS(=O)(=O)c2ccc(c(F)c2)Nc2cc([nH]n2)[C@H]2CC[C@H](C2)O1 [Compound 92]
